Here are results for nine molecules from patent publication US20230183215A1, “Notch Inhibitors and Uses Thereof” (StemSynergy Therapeutics, Inc., priority 2020, published 2023).

Where a name gives a salt, the structure may show the parent alone.

The EC50 is the midpoint of the concentration-response curve. Low values mean a more potent agent, high ones a less potent agent. A word on the IC50: it is the concentration needed to halve the response being measured. A high value points to a need for much substance.

Experiment [1] has as its system OE33 Esophageal Adenocarcinoma cell line. The experiment is described as follows: OE33 Colony Formation Assay. In kind it is cell-based. Particulars: Homo sapiens, 200 cells/well, compound every 48 hours for 7 days, CellTiter-Glo. The procedure: OE33 Colony Formation Assay:
The OE33 Esophageal Adenocarcinoma cell line was cultured and plated into 96-well tissue culture plates under sparse conditions (200 cells/well). Test compounds were serially diluted in DMSO and then into culture media (final DMSO concentration=0.1%). Compound/media was then added to cells every 48 hours for a total of 7 days. Clonogenic growth was assessed using the CellTiter-Glo reagent, according to manufacturer (Promega) specifications. Percent inhibition was calculated as the percent of luminescence normalized to control (0.1% DMSO) wells. Nonlinear regression curve fitting was performed using GraphPad Prism software to determine EC50's.
On the technique in general: In ATP-based viability assays light output follows the ATP content of the culture.

In the next experiment the target is T1, Notch1 (Homo sapiens, UniProt P46531).
T1 construct: pLV[Tet]-Puro-TRE3G>Notch1-ICD; expressed in transfected cells; host or cells: 293A cells
T1 sequence (P46531 1754-2555 limits assumed): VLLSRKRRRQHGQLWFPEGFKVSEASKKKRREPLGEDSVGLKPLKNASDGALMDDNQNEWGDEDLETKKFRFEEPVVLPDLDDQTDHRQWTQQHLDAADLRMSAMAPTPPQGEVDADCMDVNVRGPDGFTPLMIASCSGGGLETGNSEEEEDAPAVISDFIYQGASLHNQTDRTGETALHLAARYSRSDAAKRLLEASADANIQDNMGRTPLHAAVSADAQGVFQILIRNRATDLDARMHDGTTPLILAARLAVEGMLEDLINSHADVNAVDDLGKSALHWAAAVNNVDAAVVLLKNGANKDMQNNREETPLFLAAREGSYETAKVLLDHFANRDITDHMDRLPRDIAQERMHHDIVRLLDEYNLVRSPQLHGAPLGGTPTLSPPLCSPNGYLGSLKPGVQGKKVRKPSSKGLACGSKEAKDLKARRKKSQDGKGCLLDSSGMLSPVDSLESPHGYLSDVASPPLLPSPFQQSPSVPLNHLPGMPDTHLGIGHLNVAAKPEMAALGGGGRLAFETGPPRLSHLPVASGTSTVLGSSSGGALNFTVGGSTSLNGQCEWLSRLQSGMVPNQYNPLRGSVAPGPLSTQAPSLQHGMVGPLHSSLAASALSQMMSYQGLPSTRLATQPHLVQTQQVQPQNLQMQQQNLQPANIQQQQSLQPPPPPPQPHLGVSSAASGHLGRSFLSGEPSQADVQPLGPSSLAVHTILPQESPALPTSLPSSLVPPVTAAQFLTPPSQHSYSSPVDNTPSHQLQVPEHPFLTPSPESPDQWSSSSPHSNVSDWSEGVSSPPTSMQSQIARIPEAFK
The experiment is described as follows: Notch1 Reporter Assay (CSL-responsive luciferase, doxycycline-induced Notch-ICD in 293A cells). Type of experiment: cell-based. Particulars: 25 ng/mL Dox, 24 h, luciferase normalized to cell viability. The method, boiled down:
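293A cells with Tet-On 3G, Dox-inducible Notch-ICD and CSL-responsive luciferase reporter were treated with compound plus 25 ng/mL Dox (final, 0.25% DMSO) for 24 h. Luciferase normalized to CellTiter-Glo viability, scaled to DMSO wells; IC50 by 4-parameter nonlinear regression.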
In general terms: A reporter such as luciferase makes a cellular process visible.

The molecule `COc1cc(-c2cc(C(F)(F)F)cc3c2n(C)c(=O)n3CC(=O)Nc2ccc(F)nc2)cc(F)c1OCc1nnc[nH]1` [SSTN-609, 2-(4-(4-((4H-1,2,4-triazol-3-yl)methoxy)-3-fluoro-5-methoxyphenyl)-3-methyl-2-oxo-6-(trifluoromethyl)-2,3-dihydro-1H-benzo[d]imidazol-1-yl)-N-(6-fluoropyridin-3-yl)acetamide] came in with a concentration giving a half-maximal response (EC50) in experiment [1] of 18.8 µM. Further, the 50% inhibitory concentration (IC50) against Notch1 was 10.3 µM.

On to `COc1cc(-c2cc(C(F)(F)F)cc3c2n(C)c(=O)n3CC(=O)Nc2cccnc2F)cc(F)c1OCc1nnc[nH]1` [SSTN-612, 2-(4-(4-((4H-1,2,4-triazol-3-yl)methoxy)-3-fluoro-5-methoxyphenyl)-3-methyl-2-oxo-6-(trifluoromethyl)-2,3-dihydro-1H-benzo[d]imidazol-1-yl)-N-(2-fluoropyridin-3-yl)acetamide], for which the EC50 in experiment [1] worked out at 17.1 µM. This molecule also returned an IC50 on Notch1 of 13.2 µM.

With `COc1cc(-c2cc(C(F)(F)F)cc3c2n(C)c(=O)n3CC(=O)N(C)c2ccc(Cl)cc2)cc(F)c1OCc1nnc[nH]1` [compound 424, 2-(4-(4-((4H-1,2,4-triazol-3-yl)methoxy)-3-fluoro-5-methoxyphenyl)-3-methyl-2-oxo-6-(trifluoromethyl)-2,3-dihydro-1H-benzo[d]imidazol-1-yl)-N-(4-chlorophenyl)-N-methylacetamide hydrochloride], in experiment [1], the concentration giving a half-maximal response (EC50) amounted to 1.4 µM. On Notch1, this molecule showed an IC50 of 3.6 µM.

In experiment [1], `COc1cc(-c2cc(C(F)(F)F)cc3c2n(C)c(=O)n3CC(=O)N(C)c2ccc(C(F)(F)F)cc2)cc(F)c1OCc1nnc[nH]1` [compound 439, 2-(4-(4-((4H-1,2,4-triazol-3-yl)methoxy)-3-fluoro-5-methoxyphenyl)-3-methyl-2-oxo-6-(trifluoromethyl)-2,3-dihydro-1H-benzo[d]imidazol-1-yl)-N-methyl-N-(4-(trifluoromethyl)phenyl)acetamide hydrochloride] displayed an EC50 of 1.2 µM. For the same molecule, the half-maximal inhibitory concentration (IC50) on Notch1 came out at 3.5 µM.

In experiment [1], `COc1cc(-c2cc(C(F)(F)F)cc3c2n(C)c(=O)n3CC(=O)N(C)c2ccc(F)cc2)cc(F)c1OCc1nnc[nH]1` [compound 440, 2-(4-(4-((4H-1,2,4-triazol-3-yl)methoxy)-3-fluoro-5-methoxyphenyl)-3-methyl-2-oxo-6-(trifluoromethyl)-2,3-dihydro-1H-benzo[d]imidazol-1-yl)-N-(4-fluorophenyl)-N-methylacetamide hydrochloride] came in with an EC50 of 4.6 µM. Also, 3.1 µM corresponded to half-maximal inhibition against Notch1 (IC50).

With `COc1cc(-c2cc(C(F)(F)F)cc3c2n(C)c(=O)n3CC(=O)N(C)c2ccc(F)cc2F)cc(F)c1OCc1nnc[nH]1` [compound 447, 2-(4-(4-((4H-1,2,4-triazol-3-yl)methoxy)-3-fluoro-5-methoxyphenyl)-3-methyl-2-oxo-6-(trifluoromethyl)-2,3-dihydro-1H-benzo[d]imidazol-1-yl)-N-(2,4-difluorophenyl)-N-methylacetamide hydrochloride], the half-maximal effective concentration (EC50) in experiment [1] worked out at 2.8 µM. This molecule also gave a concentration for half-maximal inhibition (IC50) against Notch1 of 3.3 µM.

Molecule `COc1cc(-c2cc(C(F)(F)F)cc3c2n(C)c(=O)n3CC(=O)N(C)c2cccc(Cl)c2)cc(F)c1OCc1nnc[nH]1` [compound 448, 2-(4-(4-((4H-1,2,4-triazol-3-yl)methoxy)-3-fluoro-5-methoxyphenyl)-3-methyl-2-oxo-6-(trifluoromethyl)-2,3-dihydro-1H-benzo[d]imidazol-1-yl)-N-(3-chlorophenyl)-N-methylacetamide hydrochloride] displayed an EC50 in experiment [1] of 2.1 µM. This molecule gave a half-inhibitory concentration (IC50) against Notch1 of 2.4 µM.

Take `COc1cc(-c2cc(C(F)(F)F)cc3c2n(C2CC2)c(=O)n3CC(=O)N(C)c2ccc(F)cc2)cc(F)c1OCc1nnc[nH]1` [compound 464, 2-(4-(4-((4H-1,2,4-triazol-3-yl)methoxy)-3-fluoro-5-methoxyphenyl)-3-cyclopropyl-2-oxo-6-(trifluoromethyl)-2,3-dihydro-1H-benzo[d]imidazol-1-yl)-N-(4-fluorophenyl)-N-methylacetamide hydrochloride]: it took 1.3 µM to reach a half-maximal effect in experiment [1] (EC50). On Notch1, this molecule gave an IC50 of 1.7 µM.

Take `COc1cc(-c2cc(C(F)(F)F)cc3c2n(C)c(=O)n3CC(=O)Nc2ccc(F)cc2)cc(F)c1OCc1nnc[nH]1` [compound 465, 2-(4-(4-((4H-1,2,4-triazol-3-yl)methoxy)-3-fluoro-5-methoxyphenyl)-3-methyl-2-oxo-6-(trifluoromethyl)-2,3-dihydro-1H-benzo[d]imidazol-1-yl)-N-(4-fluorophenyl)acetamide hydrochloride]: a half-maximal response in experiment [1] (EC50) required 5.2 µM. Besides, on Notch1, the IC50 was determined as 8.6 µM.
